Experimental data published in US20260070913A1, “7-AMINO-3,4-DIHYDROPYRIMIDOPYRIMIDIN-2-ONE DERIVATIVE HAVING INHIBITORY ACTIVITY FOR PROTEIN KINASES AND THERAPEUTIC PHARMACEUTICAL COMPOSITION COMPRISING SAME” (KOREA INSTITUTE OF SCIENCE AND TECHNOLOGY, priority 2020, published 2026).

Key:
GCK = molecular target: T1, GCK (Homo sapiens, UniProt Q12851); experiment: Inhibitory activity against GCK kinase; assay type: biochemical
T1 sequence (Q12851 1-820): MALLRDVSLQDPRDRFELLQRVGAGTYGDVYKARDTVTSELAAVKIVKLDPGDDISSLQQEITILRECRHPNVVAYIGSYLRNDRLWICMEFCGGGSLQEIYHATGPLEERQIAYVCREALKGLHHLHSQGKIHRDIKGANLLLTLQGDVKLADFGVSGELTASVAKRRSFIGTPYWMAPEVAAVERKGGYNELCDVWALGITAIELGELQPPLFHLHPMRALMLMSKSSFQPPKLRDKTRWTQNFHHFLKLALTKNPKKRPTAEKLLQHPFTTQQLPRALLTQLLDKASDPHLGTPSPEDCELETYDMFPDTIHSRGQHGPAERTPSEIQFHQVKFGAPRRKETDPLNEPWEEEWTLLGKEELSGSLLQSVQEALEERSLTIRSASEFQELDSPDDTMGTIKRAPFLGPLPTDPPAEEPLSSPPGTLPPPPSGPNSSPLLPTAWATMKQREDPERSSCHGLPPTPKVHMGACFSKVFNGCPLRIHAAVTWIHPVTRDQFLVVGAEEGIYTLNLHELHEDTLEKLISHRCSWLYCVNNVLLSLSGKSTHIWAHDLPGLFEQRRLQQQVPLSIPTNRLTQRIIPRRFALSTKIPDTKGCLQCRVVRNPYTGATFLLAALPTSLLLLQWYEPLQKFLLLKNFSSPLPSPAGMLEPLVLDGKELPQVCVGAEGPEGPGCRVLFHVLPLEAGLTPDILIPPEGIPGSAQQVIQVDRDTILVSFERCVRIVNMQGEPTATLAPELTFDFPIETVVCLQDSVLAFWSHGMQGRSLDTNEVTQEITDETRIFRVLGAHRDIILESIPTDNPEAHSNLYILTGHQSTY
Procedure: (§1) The inhibitory activities of the compounds of the present disclosure against two kinases, GCK and ACK1, were measured, and the IC50 values thereof were calculated.

OCI-AML3 (N-Ras Q61L) = experiment: Proliferation inhibitory activity, OCI-AML3 cell line; assay type: cell-based; conditions: Homo sapiens, OCI-AML-3
Procedure: (§2) The inhibitory activities of the compounds of the present disclosure against the proliferation of the mt-NRAS (G12D) Ba/F3 and OCI-AML3 (mt-NRAS) cell lines were measured, and the […] values thereof were calculated.
Referring to the results in Table 2, it can be seen that the compound of the present disclosure has inhibitory activity against the proliferation of the human acute myeloid leukemia cell line (OCI-AML3) having the NRAS mutant gene, and the effect thereof is remarkable. Therefore, it can be seen that the compound of the present disclosure is particularly effective as a therapeutic agent for acute myeloid leukemia (AML).

ACK1 = ACK1 (Homo sapiens, UniProt Q07912); experiment: Inhibitory activity against ACK1 kinase; assay type: biochemical
Sequence of ACK1 (Q07912 whole entry): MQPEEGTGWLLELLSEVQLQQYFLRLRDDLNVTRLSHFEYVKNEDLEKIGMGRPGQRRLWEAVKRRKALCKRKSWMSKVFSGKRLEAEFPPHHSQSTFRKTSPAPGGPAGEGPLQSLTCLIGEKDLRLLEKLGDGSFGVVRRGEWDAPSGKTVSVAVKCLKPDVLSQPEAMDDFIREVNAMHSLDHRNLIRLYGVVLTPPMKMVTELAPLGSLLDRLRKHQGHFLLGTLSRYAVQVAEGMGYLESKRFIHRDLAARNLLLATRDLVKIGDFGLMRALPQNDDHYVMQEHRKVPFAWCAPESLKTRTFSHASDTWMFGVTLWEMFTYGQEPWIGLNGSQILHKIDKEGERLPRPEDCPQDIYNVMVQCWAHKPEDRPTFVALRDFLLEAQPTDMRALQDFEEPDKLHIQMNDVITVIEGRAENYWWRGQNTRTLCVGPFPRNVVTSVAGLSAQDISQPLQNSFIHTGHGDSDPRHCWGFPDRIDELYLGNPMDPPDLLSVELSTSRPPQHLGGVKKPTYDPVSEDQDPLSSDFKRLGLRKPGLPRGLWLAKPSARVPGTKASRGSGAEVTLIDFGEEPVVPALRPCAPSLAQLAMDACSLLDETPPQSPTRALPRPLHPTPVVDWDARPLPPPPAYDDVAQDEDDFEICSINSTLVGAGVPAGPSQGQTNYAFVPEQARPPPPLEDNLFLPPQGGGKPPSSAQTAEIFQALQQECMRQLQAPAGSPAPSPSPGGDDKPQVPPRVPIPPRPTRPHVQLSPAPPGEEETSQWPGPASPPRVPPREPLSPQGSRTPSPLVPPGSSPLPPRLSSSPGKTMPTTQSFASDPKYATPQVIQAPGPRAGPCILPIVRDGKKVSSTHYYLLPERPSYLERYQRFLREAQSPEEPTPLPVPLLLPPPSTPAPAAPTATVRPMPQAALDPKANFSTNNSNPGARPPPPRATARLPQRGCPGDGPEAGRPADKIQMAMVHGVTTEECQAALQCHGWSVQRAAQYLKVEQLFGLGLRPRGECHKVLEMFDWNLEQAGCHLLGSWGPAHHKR
Procedure: as §1

Ba/F3 (N-Ras G12D) = experiment: Proliferation inhibitory activity, mt-NRAS (G12D) Ba/F3 cell line; assay type: cell-based; conditions: Mus musculus, BaF3
Procedure: as §2

Row | SMILES | IC50 (GCK) | GI50 (OCI-AML3 (N-Ras Q61L)) | IC50 (ACK1) | GI50 (Ba/F3 (N-Ras G12D))
1 | CCN1CCC(c2ccc(Nc3ncc4c(n3)N(C)C(=O)N(c3cc(-c5ncc(-c6ccccc6OC)[nH]5)ccc3C)C4)cn2)CC1 [Compound No. 5, 7-((6-(1-ethylpiperidin-4-yl)pyridin-3-yl)amino)-3-(5-(5-(2-methoxyphenyl)-1H-imidazole-2-yl)-2-methylphenyl)-1-methyl-3,4-dihydropyrimido[4,5-d]pyrimidin-2(1H)-one] | 100 to 1000 nM | < 0.5 µM | < 100 nM | < 0.5 µM
2 | COc1ccccc1-c1cnc(-c2ccc(C)c(N3Cc4cnc(Nc5cnn(C)c5)nc4N(C)C3=O)c2)[nH]1 [Compound No. 1, 3-(5-(5-(2-methoxyphenyl)-1H-imidazol-2-yl)-2-methylphenyl)-1-methyl-7-((1-methyl-1H-pyrazol-4-yl)amino)-3,4-dihydropyrimido[4,5-d]pyrimidin-2(1H)-one] | 100 to 1000 nM | < 0.5 µM | < 100 nM | < 0.5 µM
3 | CCN1CCC(n2cc(Nc3ncc4c(n3)N(C)C(=O)N(c3cc(-c5ncc(-c6ccccc6OC)[nH]5)ccc3C)C4)cn2)CC1 [Compound No. 4, 7-((1-(1-ethylpiperidin-4-yl)-1H-pyrazol-4-yl)amino)-3-(5-(5-(2-methoxyphenyl)-1H-imidazol-2-yl)-2-methylphenyl)-1-methyl-3,4-dihydropyrimido[4,5-d]pyrimidin-2(1H)-one] | 100 to 1000 nM | < 0.5 µM | < 100 nM | < 0.5 µM
4 | Cc1ccc(Nc2ncc3c(n2)N(C)C(=O)N(c2cc(-c4ncc(-c5cccc(F)c5F)[nH]4)ccc2C)C3)cn1 [Compound No. 12] | > 10000 nM | < 0.5 µM | 100 to 1000 nM | 0.5 to 3 µM
5 | Cc1ccc(-c2ncc(-c3ccccc3OC(F)(F)F)[nH]2)cc1N1Cc2cnc(Nc3ccc(N4CCOCC4)cc3)nc2N(C)C1=O [Compound No. 18, 1-methyl-3-(2-methyl-5-(5-(2-(trifluoromethoxy)phenyl)-1H-imidazol-2-yl)phenyl)-7-((4-morpholinophenyl)amino)-3,4-dihydropyrimido[4,5-d]pyrimidin-2(1H)-one] | 1000 to 10000 nM | > 5 µM | < 100 nM | 0.5 to 3 µM
6 | CCN1CCN(c2ccc(Nc3ncc4c(n3)N(C)C(=O)N(c3cc(-c5ncc(-c6ccccc6OC(F)(F)F)[nH]5)ccc3C)C4)cn2)CC1 [Compound No. 16, 7-((6-(4-ethylpiperazin-1-yl)pyridin-3-yl)amino)-1-methyl-3-(2-methyl-5-(5-(2-(trifluoromethoxy)phenyl)-1H-imidazol-2-yl)phenyl)-3,4-dihydropyrimido[4,5-d]pyrimidin-2(1H)-one] | – | > 5 µM | – | > 5 µM
7 | Cc1ccc(Nc2ncc3c(n2)N(C)C(=O)N(c2cc(-c4ncc(-c5ccccc5OC(F)(F)F)[nH]4)ccc2C)C3)cn1 [Compound No. 9, 1-methyl-3-(2-methyl-5-(5-(2-(trifluoromethoxy)phenyl)-1H-imidazol-2-yl)phenyl)-7-((6-methylpyridin-3-yl)amino)-3,4-dihydropyrimido[4,5-d]pyrimidin-2(1H)-one] | > 10000 nM | 0.5 to 3 µM | 100 to 1000 nM | < 0.5 µM
8 | CCN1CCC(c2ccc(Nc3ncc4c(n3)N(C)C(=O)N(c3cc(-c5ncc(-c6ccccc6OC(F)(F)F)[nH]5)ccc3C)C4)cn2)CC1 [Compound No. 15, 7-((6-(1-ethylpiperidin-4-yl)pyridin-3-yl)amino)-1-methyl-3-(2-methyl-5-(5-(2-(trifluoromethoxy)phenyl)-1H-imidazol-2-yl)phenyl)-3,4-dihydropyrimido[4,5-d]pyrimidin-2(1H)-one] | – | > 5 µM | – | 3 to 5 µM
9 | COc1ccccc1-c1cnc(-c2ccc(C)c(N3Cc4cnc(Nc5cnn(C6CCN(C(C)=O)CC6)c5)nc4N(C)C3=O)c2)[nH]1 [Compound No. 7, 7-((1-(1-acetylpiperidin-4-yl)-1H-pyrazol-4-yl)amino)-3-(5-(5-(2-methoxyphenyl)-1H-imidazol-2-yl)-2-methylphenyl)-1-methyl-3,4-dihydropyrimido[4,5-d]pyrimidin-2(1H)-one] | 100 to 1000 nM | < 0.5 µM | < 100 nM | < 0.5 µM
10 | Cc1ccc(-c2ncc(-c3cccc(F)c3F)[nH]2)cc1N1Cc2cnc(NC3CC3)nc2N(C)C1=O [Compound No. 11, 7-(cyclopropylamine)-3-(5-(5-(2,3-difluorophenyl)-1H-imidazol-2-yl)-2-methylphenyl)-1-methyl-3,4-dihydropyrimido[4,5-d]pyrimidin-2(1H)-one] | > 10000 nM | 0.5 to 3 µM | 1000 to 10000 nM | 0.5 to 3 µM
11 | CC(=O)N1CCC(n2cc(Nc3ncc4c(n3)N(C)C(=O)N(c3cc(-c5ncc(-c6ccccc6OC(F)(F)F)[nH]5)ccc3C)C4)cn2)CC1 [Compound No. 17, 7-((1-(1-acetylpiperidin-4-yl)-1H-pyrazol-4-yl)amino)-1-methyl-3-(2-methyl-5-(5-(2-(trifluoromethoxy)phenyl)-1H-imidazol-2-yl)phenyl)-3,4-dihydropyrimido[4,5-d]pyrimidin-2(1H)-one] | – | > 5 µM | – | > 5 µM
12 | CCN1CCC(n2cc(Nc3ncc4c(n3)N(C)C(=O)N(c3cc(-c5ncc(-c6ccccc6OC(F)(F)F)[nH]5)ccc3C)C4)cn2)CC1 [Compound No. 10, 7-((1-(1-ethylpiperidin-4-yl)-1H-pyrazol-4-yl)amino)-1-methyl-3-(2-methyl-5-(5-(2-(trifluoromethoxy)phenyl)-1H-imidazol-2-yl)phenyl)-3,4-dihydropyrimido[4,5-d]pyrimidin-2(1H)-one] | 100 to 1000 nM | < 0.5 µM | < 100 nM | < 0.5 µM
13 | CC(=O)N1CCN(c2ccc(Nc3ncc4c(n3)N(C)C(=O)N(c3cc(-c5ncc(-c6ccccc6OC(F)(F)F)[nH]5)ccc3C)C4)cn2)CC1 [Compound No. 14, 7-((6-(4-acetylpiperazin-1-yl)pyridin-3-yl)amino)-1-methyl-3-(2-methyl-5-(5-(2-(trifluoromethoxy)phenyl)-1H-imidazol-2-yl)phenyl)-3,4-dihydropyrimido[4,5-d]pyrimidin-2(1H)-one] | 100 to 1000 nM | 0.5 to 3 µM | 100 to 1000 nM | 0.5 to 3 µM
14 | Cc1ccc(Nc2ncc3c(n2)N(C)C(=O)N(c2cc(-c4ncc(-c5ccccc5OC(F)(F)F)[nH]4)ccc2C)C3)c(C)n1 [Compound No. 8, 7-((2,6-dimethylpyridin-3-yl)amino)-1-methyl-3-(2-methyl-5-(5-(2-(trifluoromethoxy)phenyl)-1H-imidazole-2-yl)phenyl)-3,4-dihydropyrimido[4,5-d]pyrimidin-2(1H)-one] | – | 3 to 5 µM | – | 0.5 to 3 µM
15 | COc1ccccc1-c1cnc(-c2ccc(C)c(N3Cc4cnc(Nc5ccc(N6CCN(C(C)=O)CC6)nc5)nc4N(C)C3=O)c2)[nH]1 [Compound No. 6, 7-((6-(4-acetylpiperazin-1-yl)pyridin-3-yl)amino)-3-(5-(5-(2-methoxyphenyl)-1H-imidazol-2-yl)-2-methylphenyl)-1-methyl-3,4-dihydropyrimido[4,5-d]pyrimidin-2(1H)-one] | 1000 to 10000 nM | < 0.5 µM | < 100 nM | < 0.5 µM
16 | COc1ccccc1-c1cnc(-c2ccc(C)c(N3Cc4cnc(Nc5ccc(C)nc5)nc4N(C)C3=O)c2)[nH]1 [Compound No. 3, 3-(5-(5-(2-methoxyphenyl)-1H-imidazol-2-yl)-2-methylphenyl)-1-methyl-7-((6-methylpyridin-3-yl)amino)-3,4-dihydropyrimido[4,5-d]pyrimidin-2(1H)-one] | 100 to 1000 nM | < 0.5 µM | < 100 nM | < 0.5 µM
17 | COc1ccccc1-c1cnc(-c2ccc(C)c(N3Cc4cnc(Nc5ccc(C)nc5C)nc4N(C)C3=O)c2)[nH]1 [Compound No. 2, 7-((2,6-dimethylpyridin-3-yl)amino)-3-(5-(5-(2-methoxyphenyl)-1H-imidazol-2-yl)-2-methylphenyl)-1-methyl-3,4-dihydropyrimido[4,5-d]pyrimidin-2(1H)-one] | – | 0.5 to 3 µM | – | 0.5 to 3 µM
